Test results as given in patent US9592221B2, “Antibacterial agents: aryl myxopyronin derivatives” (priority 2012, dated 2017).

What was measured:
[1] = target: E. coli RNA polymerase σ^70 holoenzyme (Escherichia coli, UniProt P0A8T7+P0A8V2); assay: Fluorescence-detected RNA polymerase assay, E. coli RNA polymerase; type: biochemical; conditions: read-out: IC50 E. coli RNAP
[2] = target: S. aureus RNA polymerase core enzyme, S. aureus σ^A (Staphylococcus aureus, UniProt P47768+Q2G0N5); assay: Fluorescence-detected RNA polymerase assay, S. aureus RNA polymerase; type: biochemical; conditions: read-out: IC50 S. aureus RNAP
[3] = tested on: Bacillus anthracis Vollum 1b; assay: microbe, parasite or virus in culture; type: cell-based; conditions: Bacillus anthracis, VOLLUM1B, read-out: MIC B. anthracis Vollum-1b
[4] = tested on: Staphylococcus aureus ATCC 12600; assay: MIC, spiral gradient endpoint assay, S. aureus ATCC 12600; type: cell-based; conditions: ATCC12600; Staphylococcus aureus ATCC 12600
[5] = tested on: Francisella tularensis SCHU4; assay: microbe, parasite or virus in culture; type: cell-based; conditions: Francisella tularensis, SCHU4, read-out: MIC F. tularensis SCHU4
[6] = tested on: Mycobacterium tuberculosis H37Rv; assay: MIC, microplate Alamar Blue assay, M. tuberculosis; type: cell-based
Brucella melitensis 16M = assay: microbe, parasite or virus in culture; type: cell-based; conditions: Brucella melitensis, 16M, read-out: MIC B. melitensis 16M
[7] = tested on: Escherichia coli D21f2tolC; assay: MIC, spiral gradient endpoint assay, E. coli D21f2tolC; type: cell-based; conditions: Escherichia coli, D21F2TOLC, read-out: MIC E. coli D21f2toIC
[8] = target: M. tuberculosis RNA polymerase core enzyme, M. tuberculosis σ^A (Mycobacterium tuberculosis, UniProt P9WGY7+P9WGY9); assay: Fluorescence-detected RNA polymerase assay, M. tuberculosis RNA polymerase; type: biochemical; conditions: read-out: IC50 M. tuberculosis RNAP
[9] = tested on: Acinetobacter baumannii ATCC 19606; assay: MIC, spiral gradient endpoint assay, A. baumannii; type: cell-based; conditions: ATCC19606; Acinetobacter baumannii ATCC 19606
Yersinia pestis C092 = assay: microbe, parasite or virus in culture; type: cell-based; conditions: Yersinia pestis, C092, read-out: MIC Y. pestis C092
Burkholderia mallei CHN7 = assay: microbe, parasite or virus in culture; type: cell-based; conditions: Burkholderia mallei, CHN7, read-out: MIC B. mallei CHN7
[10] = tested on: Burkholderia pseudomallei Human/Blood/OH/US/1994; assay: microbe, parasite or virus in culture; type: cell-based; conditions: Burkholderia pseudomallei, read-out: MIC B. pseudomallei Human/Blood/OH

Sequence of S. aureus RNA polymerase core enzyme, S. aureus σ^A (Q2G0N5 whole entry): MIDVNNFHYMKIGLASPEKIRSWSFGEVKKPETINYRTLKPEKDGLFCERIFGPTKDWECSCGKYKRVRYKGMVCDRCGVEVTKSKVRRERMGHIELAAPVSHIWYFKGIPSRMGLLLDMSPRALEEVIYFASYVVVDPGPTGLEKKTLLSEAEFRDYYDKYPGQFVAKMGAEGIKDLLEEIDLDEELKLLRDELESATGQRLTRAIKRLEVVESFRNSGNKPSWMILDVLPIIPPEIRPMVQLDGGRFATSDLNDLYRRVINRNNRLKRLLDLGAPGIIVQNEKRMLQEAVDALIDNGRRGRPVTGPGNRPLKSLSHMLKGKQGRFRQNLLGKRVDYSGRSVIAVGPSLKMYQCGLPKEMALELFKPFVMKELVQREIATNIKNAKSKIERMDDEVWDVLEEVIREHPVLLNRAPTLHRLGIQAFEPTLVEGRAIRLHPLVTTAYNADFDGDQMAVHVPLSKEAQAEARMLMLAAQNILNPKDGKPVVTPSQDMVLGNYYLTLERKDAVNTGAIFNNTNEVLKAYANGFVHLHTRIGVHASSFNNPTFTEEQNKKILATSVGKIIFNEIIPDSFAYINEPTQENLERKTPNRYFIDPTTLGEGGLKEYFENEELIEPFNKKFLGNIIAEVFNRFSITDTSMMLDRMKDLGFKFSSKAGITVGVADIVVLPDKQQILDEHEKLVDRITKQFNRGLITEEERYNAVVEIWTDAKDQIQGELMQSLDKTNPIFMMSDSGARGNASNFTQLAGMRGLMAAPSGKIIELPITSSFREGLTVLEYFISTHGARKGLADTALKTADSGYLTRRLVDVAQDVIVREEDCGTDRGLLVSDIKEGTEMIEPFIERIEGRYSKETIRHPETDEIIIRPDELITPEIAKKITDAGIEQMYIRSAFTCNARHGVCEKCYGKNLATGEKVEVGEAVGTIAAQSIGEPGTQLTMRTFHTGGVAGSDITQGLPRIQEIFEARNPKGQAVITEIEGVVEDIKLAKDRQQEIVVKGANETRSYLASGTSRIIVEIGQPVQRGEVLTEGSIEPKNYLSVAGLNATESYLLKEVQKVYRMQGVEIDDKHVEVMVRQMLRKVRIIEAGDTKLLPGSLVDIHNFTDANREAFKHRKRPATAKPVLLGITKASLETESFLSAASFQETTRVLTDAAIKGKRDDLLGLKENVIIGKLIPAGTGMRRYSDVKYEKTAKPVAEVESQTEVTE
Sequence of S. aureus RNA polymerase core enzyme, S. aureus σ^A (Q2FW32 whole entry, further chain): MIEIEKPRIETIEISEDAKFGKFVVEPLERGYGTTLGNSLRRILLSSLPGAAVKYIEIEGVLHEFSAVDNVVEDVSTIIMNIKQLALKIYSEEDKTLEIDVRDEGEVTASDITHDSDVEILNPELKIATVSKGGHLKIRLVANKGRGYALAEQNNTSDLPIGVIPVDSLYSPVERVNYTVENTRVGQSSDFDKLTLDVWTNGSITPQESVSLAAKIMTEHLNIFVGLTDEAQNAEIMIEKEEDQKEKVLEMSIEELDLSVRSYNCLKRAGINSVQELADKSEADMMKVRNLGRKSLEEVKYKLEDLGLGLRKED
Sequence of S. aureus RNA polymerase core enzyme, S. aureus σ^A (P0A0J0 whole entry, further chain): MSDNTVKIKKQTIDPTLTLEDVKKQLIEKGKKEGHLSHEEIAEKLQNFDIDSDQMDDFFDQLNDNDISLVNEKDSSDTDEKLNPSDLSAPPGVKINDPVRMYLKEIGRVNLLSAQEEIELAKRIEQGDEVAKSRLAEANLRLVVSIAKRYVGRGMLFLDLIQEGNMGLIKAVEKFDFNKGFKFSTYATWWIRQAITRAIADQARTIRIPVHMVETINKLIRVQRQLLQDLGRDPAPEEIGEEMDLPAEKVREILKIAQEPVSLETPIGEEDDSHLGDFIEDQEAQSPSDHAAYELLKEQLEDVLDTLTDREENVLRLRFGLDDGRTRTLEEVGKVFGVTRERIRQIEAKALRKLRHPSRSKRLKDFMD
Sequence of S. aureus RNA polymerase core enzyme, S. aureus σ^A (P47768 whole entry): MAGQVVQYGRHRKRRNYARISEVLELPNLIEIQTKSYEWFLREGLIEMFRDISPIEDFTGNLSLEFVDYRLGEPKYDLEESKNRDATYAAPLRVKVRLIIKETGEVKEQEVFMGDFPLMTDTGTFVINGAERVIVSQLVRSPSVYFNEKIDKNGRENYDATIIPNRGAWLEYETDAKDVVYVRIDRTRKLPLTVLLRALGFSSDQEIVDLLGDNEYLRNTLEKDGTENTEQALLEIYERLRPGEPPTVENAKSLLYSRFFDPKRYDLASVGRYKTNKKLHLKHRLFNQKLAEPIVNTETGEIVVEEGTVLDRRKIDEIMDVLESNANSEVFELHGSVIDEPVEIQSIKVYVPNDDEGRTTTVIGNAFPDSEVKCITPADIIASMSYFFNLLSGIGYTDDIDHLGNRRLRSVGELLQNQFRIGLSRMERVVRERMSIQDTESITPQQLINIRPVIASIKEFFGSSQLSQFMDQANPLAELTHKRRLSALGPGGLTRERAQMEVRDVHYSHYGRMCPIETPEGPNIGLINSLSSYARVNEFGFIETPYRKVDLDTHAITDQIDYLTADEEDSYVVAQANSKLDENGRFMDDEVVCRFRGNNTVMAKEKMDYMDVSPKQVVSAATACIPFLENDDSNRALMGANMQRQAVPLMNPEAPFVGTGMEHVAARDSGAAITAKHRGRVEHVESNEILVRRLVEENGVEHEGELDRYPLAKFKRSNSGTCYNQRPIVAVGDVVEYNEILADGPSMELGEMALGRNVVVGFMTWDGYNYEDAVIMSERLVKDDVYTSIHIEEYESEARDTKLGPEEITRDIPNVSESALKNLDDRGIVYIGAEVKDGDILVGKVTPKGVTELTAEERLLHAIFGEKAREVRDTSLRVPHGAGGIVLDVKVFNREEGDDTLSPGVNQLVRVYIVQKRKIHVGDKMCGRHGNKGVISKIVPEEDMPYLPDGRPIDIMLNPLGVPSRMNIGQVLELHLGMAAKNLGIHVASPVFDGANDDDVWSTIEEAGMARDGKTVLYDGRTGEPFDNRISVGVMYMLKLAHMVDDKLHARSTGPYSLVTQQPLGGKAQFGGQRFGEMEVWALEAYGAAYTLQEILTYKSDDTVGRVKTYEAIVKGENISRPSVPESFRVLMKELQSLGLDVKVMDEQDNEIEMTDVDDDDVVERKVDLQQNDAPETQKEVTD

Row | SMILES | IC50 [1] | IC50 [2] | MIC [3] | MIC [4] | MIC [5] | MIC [6] | MIC (Brucella melitensis 16M) | MIC [7] | IC50 [8] | MIC [9] | MIC (Yersinia pestis C092) | MIC (Burkholderia mallei CHN7) | MIC [10]
1 | CCCCCCc1csc(C=C(C)C(=O)c2c(O)cc(C(C)CC/C=C/NC(=O)OC)oc2=O)c1 (mixture of isomers) [APY18, methyl (E)-5-(3-((E/Z)-3-(4-hexylthiophen-2-yl)-2-methylacryloyl)-4-hydroxy-2-oxo-2H-pyran-6-yl)hex-1-enylcarbamate] | 7 nM | 70 nM | 2 µg/mL | 4 µg/mL | 3 µg/mL | 10 µg/mL | 0.8 µg/mL | 0.07 µg/mL | 600 nM | 4 µg/mL | 6 µg/mL | 2 µg/mL | 6 µg/mL
2 | CCCCCCc1coc(C=C(C)C(=O)c2c(O)cc(C(C)CC/C=C/NC(=O)OC)oc2=O)c1 (mixture of isomers) [APY19, methyl (E)-5-(3-((E/Z)-3-(4-hexylfuran-2-yl)-2-methylacryloyl)-4-hydroxy-2-oxo-2H-pyran-6-yl)hex-1-enylcarbamate] | 7 nM | 30 nM | 2 µg/mL | 2 µg/mL | 6 µg/mL | 6 µg/mL | 0.4 µg/mL | 0.1 µg/mL | 400 nM | 10 µg/mL | 6 µg/mL | 0.8 µg/mL | 3 µg/mL
3 | CCCCCCc1ccc2oc(C=C(C)C(=O)c3c(O)cc(C(C)CC/C=C/NC(=O)OC)oc3=O)cc2c1 (mixture of isomers) [APY20, methyl (E)-5-(3-((E/Z)-3-(5-hexylbenzofuran-2-yl)-2-methylacryloyl)-4-hydroxy-2-oxo-2H-pyran-6-yl)hex-1-enylcarbamate] | 4 nM | 20 nM | 2 µg/mL | > 40 µg/mL | 0.8 µg/mL | 6 µg/mL | 0.8 µg/mL | 0.3 µg/mL | 300 nM | > 40 µg/mL | > 50 µg/mL | 2 µg/mL | > 50 µg/mL
4 | CCCCc1ccc(C=C(CC)C(=O)c2c(O)cc(C(C)CC/C=C/NC(=O)OC)oc2=O)s1 (mixture of isomers) [APY21, methyl (E)-5-(3-((E/Z)-2-((5-butylthiophen-2-yl)methylene)butanoyl)-4-hydroxy-2-oxo-2H-pyran-6-yl)hex-1-enylcarbamate] | 40 nM | 500 nM | 3 µg/mL | 2 µg/mL | 3 µg/mL | 10 µg/mL | 2 µg/mL | 0.3 µg/mL | 300 nM | 20 µg/mL | > 50 µg/mL | 6 µg/mL | 10 µg/mL
5 | CCCCc1ccc2oc(C=C(C)C(=O)c3c(O)cc(C(C)CC/C=C/NC(=O)OC)oc3=O)cc2c1 (mixture of isomers) [APY25, methyl (E)-5-(3-((E/Z)-3-(5-butylbenzofuran-2-yl)-2-methylacryloyl)-4-hydroxy-2-oxo-2H-pyran-6-yl)hex-1-enylcarbamate] | 10 nM | 70 nM | 0.2 µg/mL | 3 µg/mL | 3 µg/mL | 6 µg/mL | 0.8 µg/mL | 0.3 µg/mL | 600 nM | > 40 µg/mL | 30 µg/mL | 2 µg/mL | 6 µg/mL
6 | CCCCc1ccc2sc(C=C(C)C(=O)c3c(O)cc(C(C)CC/C=C/NC(=O)OC)oc3=O)cc2c1 (mixture of isomers) [APY26, methyl (E)-5-(3-((E/Z)-3-(5-butylbenzo[b]thiophen-2-yl)-2-methylacryloyl)-4-hydroxy-2-oxo-2H-pyran-6-yl)hex-1-enylcarbamate] | 20 nM | 200 nM | 2 µg/mL | > 40 µg/mL | 2 µg/mL | 6 µg/mL | 2 µg/mL | 0.3 µg/mL | 1000 nM | > 40 µg/mL | > 50 µg/mL | 6 µg/mL | > 50 µg/mL
7 | CCCCCCc1csc(C=C(C)C(=O)c2c(O)cc(C(C)CC/C=C/NC(=O)OC)oc2=O)c1C (mixture of isomers) [APY27, methyl (E)-5-(3-((E/Z)-3-(4-hexyl-3-methylthiophen-2-yl)-2-methylacryloyl)-4-hydroxy-2-oxo-2H-pyran-6-yl)hex-1-enylcarbamate] | 10 nM | 100 nM | 3 µg/mL | 6 µg/mL | 3 µg/mL | 10 µg/mL | 2 µg/mL | 0.3 µg/mL | 1000 nM | 20 µg/mL | > 50 µg/mL | 6 µg/mL | 50 µg/mL
8 | C=CCCc1ccc(C=C(C)C(=O)c2c(O)cc(C(C)CC/C=C/NC(=O)OC)oc2=O)s1 (mixture of isomers) [APY28, methyl (E)-5-(3-((E/Z)-3-(5-(but-3-enyl)thiophen-2-yl)-2-methylacryloyl)-4-hydroxy-2-oxo-2H-pyran-6-yl)hex-1-enylcarbamate] | 40 nM | 60 nM | 6 µg/mL | 2 µg/mL | 30 µg/mL | 6 µg/mL | 0.4 µg/mL | 0.3 µg/mL | 200 nM | 30 µg/mL | 30 µg/mL | 10 µg/mL | 30 µg/mL
9 | C=CCCCCc1ccc(C=C(C)C(=O)c2c(O)cc(C(C)CC/C=C/NC(=O)OC)oc2=O)s1 (mixture of isomers) [APY29, methyl (E)-5-(3-((E/Z)-3-(5-(hex-5-enyl)thiophen-2-yl)-2-methylacryloyl)-4-hydroxy-2-oxo-2H-pyran-6-yl)hex-1-enylcarbamate] | 40 nM | 90 nM | 3 µg/mL | 4 µg/mL | 10 µg/mL | 30 µg/mL | 0.8 µg/mL | 0.3 µg/mL | 500 nM | 30 µg/mL | 10 µg/mL | 3 µg/mL | 10 µg/mL
10 | COC(=O)N/C=C/CCC(C)c1cc(O)c(C(=O)C(C)=Cc2ccc(CCC(C)C)s2)c(=O)o1 (mixture of isomers) [APY31, methyl (E)-5-(4-hydroxy-3-((E/Z)-3-(5-isopentylthiophen-2-yl)-2-methylacryloyl)-2-oxo-2H-pyran-6-yl)hex-1-enylcarbamate] | 10 nM | 50 nM | 0.4 µg/mL | 0.4 µg/mL | 6 µg/mL | 3 µg/mL | 0.8 µg/mL | < 0.3 µg/mL | 20 nM | 6 µg/mL | 10 µg/mL | 2 µg/mL | 6 µg/mL
11 | COC(=O)N/C=C/CCC(C)c1cc(O)c(C(=O)C(C)=Cc2ccc(CCCC3CCCCC3)s2)c(=O)o1 (mixture of isomers) [APY32, methyl (E)-5-(3-((E/Z)-3-(5-(3-cyclohexylpropyl)thiophen-2-yl)-2-methylacryloyl)-4-hydroxy-2-oxo-2H-pyran-6-yl)hex-1-enylcarbamate] | 6 nM | 6 nM | 2 µg/mL | > 40 µg/mL | 0.8 µg/mL | 6 µg/mL | 2 µg/mL | 0.4 µg/mL | 2000 nM | > 40 µg/mL | > 50 µg/mL | 2 µg/mL | 6 µg/mL
12 | CCCCCCc1ccc(C=C(C)C(=O)c2c(O)cc(C(C)CC/C=C/NC(=O)OC)oc2=O)cc1 (mixture of isomers) [APY33, methyl (E)-5-(3-((E/Z)-3-(4-hexylphenyl)-2-methylacryloyl)-4-hydroxy-2-oxo-2H-pyran-6-yl)hex-1-enylcarbamate] | 8 nM | 10 nM | 2 µg/mL | 2 µg/mL | 3 µg/mL | 6 µg/mL | 0.4 µg/mL | 0.3 µg/mL | 400 nM | 20 µg/mL | 6 µg/mL | 2 µg/mL | 6 µg/mL
13 | CCCCCCc1cccc(C=C(C)C(=O)c2c(O)cc(C(C)CC/C=C/NC(=O)OC)oc2=O)c1 (mixture of isomers) [APY34, methyl (E)-5-(3-((E/Z)-3-(3-hexylphenyl)-2-methylacryloyl)-4-hydroxy-2-oxo-2H-pyran-6-yl)hex-1-enylcarbamate] | 10 nM | 50 nM | 3 µg/mL | > 40 µg/mL | 6 µg/mL | 30 µg/mL | 3 µg/mL | 0.3 µg/mL | 3000 nM | 10 µg/mL | > 50 µg/mL | 3 µg/mL | 30 µg/mL
